Patent US10227323B2, “Glucosylceramide synthase inhibitors for the treatment of diseases” (BIOMARIN PHARMACEUTICAL INC., priority 2013, dated 2019)

These molecules were tested against T1, GCS (Canis lupus familiaris, UniProt A0A8I3MXG6) (assay: Assay 1: GCS Enzymatic Assay (MDCK cell lysate, C6-NBD-Ceramide, LC/MS)). Details: Table 2; data marked by *.
T1 sequence (A0A8I3MXG6 1-394): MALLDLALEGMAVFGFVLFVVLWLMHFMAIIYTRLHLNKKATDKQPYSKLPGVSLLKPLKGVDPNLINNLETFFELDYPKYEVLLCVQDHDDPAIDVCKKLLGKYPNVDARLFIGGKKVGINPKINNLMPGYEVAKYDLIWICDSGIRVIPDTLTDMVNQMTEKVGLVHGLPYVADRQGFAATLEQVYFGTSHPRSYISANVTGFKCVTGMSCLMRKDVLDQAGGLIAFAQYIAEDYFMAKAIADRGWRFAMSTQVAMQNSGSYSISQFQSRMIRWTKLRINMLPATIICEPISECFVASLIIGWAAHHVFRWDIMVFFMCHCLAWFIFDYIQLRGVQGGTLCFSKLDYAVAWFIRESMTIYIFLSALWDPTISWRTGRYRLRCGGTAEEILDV
Format: biochemical, canine
Summary of the method: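 LC/MS/MS measurement of glucosylceramide and NBD-ceramide after a 1 h, 37 °C reaction with 100 μM UDP-glucose and 10 μM C6-NBD-ceramide gave IC50s or percent inhibition.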

Row | Compound | % inhibition generated from Assay 1
1 | CC(C)(O)COc1ccc([C@H](O)[C@@H](CN2CCCC2)NC(=O)C(F)(F)c2cc3cc(Cl)ccc3o2)cc1Cl [Compound 168, N-((1S,2R)-1-(3-chloro-4-(2-hydroxy-2-methylpropoxy)phenyl)-1-hydroxy-3-(pyrrolidin-1-yl)propan-2-yl)-2-(5-chlorobenzofuran-2-yl)-2,2-difluoroacetamide] | B* (the compound had a % inhibition of greater than or equal to about 3% but less than about 50%)
2 | O=C(N[C@H](CN1CCC1)[C@H](O)c1ccc(OC2CC2)c(Cl)c1)/C(=N/O)c1cc2cc(Cl)ccc2o1 [Compound 169, (E)-N-((1R,2R)-3-(azetidin-1-yl)-1-(3-chloro-4-cyclopropoxyphenyl)-1-hydroxypropan-2-yl)-2-(5-chlorobenzofuran-2-yl)-2-(hydroxyimino)acetamide] | A* (the compound had a % inhibition of a percent inhibition of greater than or equal to about 50%)
3 | O=C(CCc1ccc2ccccc2c1)C(=O)N[C@H](CN1CCC1)[C@H](O)c1ccc(OC2CC2)c(Cl)c1 [Compound 170, N-((1R,2R)-3-(azetidin-1-yl)-1-(3-chloro-4-cyclopropoxyphenyl)-1-hydroxypropan-2-yl)-4-(naphthalen-2-yl)-2-oxobutanamide] | B* (the compound had a % inhibition of greater than or equal to about 3% but less than about 50%)
4 | O=C(N[C@H](CN1CCCC1)[C@H](O)c1ccc(OC2CC2)c(Cl)c1)C(F)(F)c1ccc(-c2ccc(F)cn2)cc1 [Compound 178, N-((1R,2R)-1-(3-chloro-4-cyclopropoxyphenyl)-1-hydroxy-3-(pyrrolidin-1-yl)propan-2-yl)-2,2-difluoro-2-(4-(5-fluoropyridin-2-yl)phenyl)acetamide] | A* (the compound had a % inhibition of a percent inhibition of greater than or equal to about 50%)
5 | O=C(N[C@H](CN1CCCC1)[C@H](O)c1ccc2c(c1)OCCO2)C(F)(F)c1ccc(-c2ccc(F)cn2)cc1 [Compound 179, N-((1R,2R)-1-(2,3-dihydrobenzo[b][1,4]dioxin-6-yl)-1-hydroxy-3-(pyrrolidin-1-yl)propan-2-yl)-2,2-difluoro-2-(4-(5-fluoropyridin-2-yl)phenyl)acetamide] | A* (the compound had a % inhibition of a percent inhibition of greater than or equal to about 50%)
6 | O=C(N[C@H](CN1CCCC1)[C@H](O)c1ccc2c(c1)OCCO2)C(F)(F)c1ccc(-c2ccc(F)cc2)s1 [Compound 180, N-((1R,2R)-1-(2,3-dihydrobenzo[b][1,4]dioxin-6-yl)-1-hydroxy-3-(pyrrolidin-1-yl)propan-2-yl)-2,2-difluoro-2-(5-(4-fluorophenyl)thiophen-2-yl)acetamide] | A* (the compound had a % inhibition of a percent inhibition of greater than or equal to about 50%)
7 | O=C(N[C@H](CN1CCCC1)[C@H](O)c1cnc2c(c1)OCCO2)C(F)(F)c1cc2cc(Cl)ccc2o1 [Compound 185, 2-(5-chlorobenzofuran-2-yl)-N-((1R,2R)-1-(2,3-dihydro-[1,4]dioxino[2,3-b]pyridin-7-yl)-1-hydroxy-3-(pyrrolidin-1-yl)propan-2-yl)-2,2-difluoroacetamide] | B* (the compound had a % inhibition of greater than or equal to about 3% but less than about 50%)
8 | O=C(N[C@H](CN1CCCC1)[C@H](O)c1ccc2c(c1)OCCO2)C(F)(F)c1ccc(-c2ccccn2)cc1 [Compound 186, N-((1R,2R)-1-(2,3-dihydrobenzo[b][1,4]dioxin-6-yl)-1-hydroxy-3-(pyrrolidin-1-yl)propan-2-yl)-2,2-difluoro-2-(4-(pyridin-2-yl)phenyl)acetamide] | A* (the compound had a % inhibition of a percent inhibition of greater than or equal to about 50%)
9 | O=C(N[C@H](CN1CCC1)[C@H](O)c1cc(F)c2c(c1)OCCO2)C(=O)c1ccc2cc(Cl)ccc2c1 [Compound 188, N-((1R,2R)-3-(azetidin-1-yl)-1-(8-fluoro-2,3-dihydrobenzo[b][1,4]dioxin-6-yl)-1-hydroxypropan-2-yl)-2-(6-chloronaphthalen-2-yl)-2-oxoacetamide] | A* (the compound had a % inhibition of a percent inhibition of greater than or equal to about 50%)

Same assay, conditions: Table 2; data without asterisk; read-out: IC50 (nM) generated from Assay 1

Row | IC50 [nM] | Compound
10 | < 50 | O=C(N[C@H](CN1CCCC1)[C@H](O)c1ccc(OC2CC2)c(Cl)c1)C(F)(F)CCc1ccc2c(c1)CCCC2 [Compound 166, N-((1R,2R)-1-(3-chloro-4-cyclopropoxyphenyl)-1-hydroxy-3-(pyrrolidin-1-yl)propan-2-yl)-2,2-difluoro-4-(5,6,7,8-tetrahydronaphthalen-2-yl)butanamide]
11 | < 50 | O=C(N[C@H](CN1CCCC1)[C@H](O)c1cc(F)c2c(c1)OCCO2)C(F)(F)CCc1ccc2c(c1)CCCC2 [Compound 167, 2,2-difluoro-N-((1R,2R)-1-(8-fluoro-2,3-dihydrobenzo[b][1,4]dioxin-6-yl)-1-hydroxy-3-(pyrrolidin-1-yl)propan-2-yl)-4-(5,6,7,8-tetrahydronaphthalen-2-yl)butanamide]
12 | < 50 | O=C(N[C@H](CN1CCC1)[C@H](O)c1ccc(OC2CC2)c(Cl)c1)C(F)(F)CCc1ccc2ccccc2c1 [Compound 171, N-((1R,2R)-3-(azetidin-1-yl)-1-(3-chloro-4-cyclopropoxyphenyl)-1-hydroxypropan-2-yl)-2,2-difluoro-4-(naphthalen-2-yl)butanamide]
13 | < 50 | O=C(N[C@H](CN1CCCC1)[C@H](O)c1ccc(OC2CC2)c(Cl)c1)C(=O)c1ccc2cc(Cl)ccc2c1 [Compound 172, N-((1R,2R)-1-(3-chloro-4-cyclopropoxyphenyl)-1-hydroxy-3-(pyrrolidin-1-yl)propan-2-yl)-2-(6-chloronaphthalen-2-yl)-2-oxoacetamide]
14 | < 50 | O=C(N[C@H](CN1CCCC1)[C@H](O)c1ccc(OC2CC2)c(Cl)c1)/C(=N/O)c1ccc2cc(Cl)ccc2c1 [Compound 173, (E)-N-((1R,2R)-1-(3-chloro-4-cyclopropoxyphenyl)-1-hydroxy-3-(pyrrolidin-1-yl)propan-2-yl)-2-(6-chloronaphthalen-2-yl)-2-(hydroxyimino)acetamide]
15 | < 50 | O=C(N[C@H](CN1CCCC1)[C@H](O)c1ccc2c(c1)OCCO2)C(=O)c1ccc(-c2ccc(F)cc2)s1 [Compound 174, N-((1R,2R)-1-(2,3-dihydrobenzo[b][1,4]dioxin-6-yl)-1-hydroxy-3-(pyrrolidin-1-yl)propan-2-yl)-2-(5-(4-fluorophenyl)thiophen-2-yl)-2-oxoacetamide]
16 | < 50 | O=C(N[C@H](CN1CCCC1)[C@H](O)c1ccc(OC2CC2)c(Cl)c1)C(=O)c1ccc(-c2ccc(F)cn2)cc1 [Compound 175]
17 | < 50 | O=C(N[C@H](CN1CCCC1)[C@H](O)c1cc(F)c2c(c1)OCCO2)C(=O)c1ccc(-c2ccc(F)cn2)cc1 [Compound 176, N-((1R,2R)-1-(8-fluoro-2,3-dihydrobenzo[b][1,4]dioxin-6-yl)-1-hydroxy-3-(pyrrolidin-1-yl)propan-2-yl)-2-(4-(5-fluoropyridin-2-yl)phenyl)-2-oxoacetamide]
18 | < 50 | O=C(N[C@H](CN1CCCC1)[C@H](O)c1ccc(OC2CCOCC2)c(Cl)c1)/C(=N/O)c1ccc(-c2ccc(F)cc2)cc1 [Compound 177, (E)-N-((1R,2R)-1-(3-chloro-4-((tetrahydro-2H-pyran-4-yl)oxy)phenyl)-1-hydroxy-3-(pyrrolidin-1-yl)propan-2-yl)-2-(4′-fluoro-[1,1′-biphenyl]-4-yl)-2-(hydroxyimino)acetamide]
19 | < 50 | O=C(N[C@H](CN1CCCC1)[C@H](O)c1ccc2c(c1)OCCO2)/C(=N/O)c1ccc(-c2ccc(F)cc2)s1 [Compound 181, (Z)-N-((1R,2R)-1-(2,3-dihydrobenzo[b][1,4]dioxin-6-yl)-1-hydroxy-3-(pyrrolidin-1-yl)propan-2-yl)-2-(5-(4-fluorophenyl)thiophen-2-yl)-2-(hydroxyimino)acetamide]
20 | < 50 | O=C(N[C@H](CN1CCCC1)[C@H](O)c1ccc(OC2CC2)c(Cl)c1)C(F)(F)c1ccc(-c2ccccn2)cc1 [Compound 182, N-((1R,2R)-1-(3-chloro-4-cyclopropoxyphenyl)-1-hydroxy-3-(pyrrolidin-1-yl)propan-2-yl)-2,2-difluoro-2-(4-(pyridin-2-yl)phenyl)acetamide]
21 | < 50 | O=C(N[C@H](CN1CCCC1)[C@H](O)c1cc(F)c2c(c1)OCCO2)C(F)(F)c1ccc(-c2ccc(F)cn2)cc1 [Compound 183, 2,2-difluoro-N-((1R,2R)-1-(8-fluoro-2,3-dihydrobenzo[b][1,4]dioxin-6-yl)-1-hydroxy-3-(pyrrolidin-1-yl)propan-2-yl)-2-(4-(5-fluoropyridin-2-yl)phenyl)acetamide]
22 | < 50 | O=C(N[C@H](CN1CCCC1)[C@H](O)c1ccc(OC2CC2)c(Cl)c1)/C(=N/O)c1ccc(-c2ccc(F)cn2)cc1 [Compound 184, (E)-N-((1R,2R)-1-(3-chloro-4-cyclopropoxyphenyl)-1-hydroxy-3-(pyrrolidin-1-yl)propan-2-yl)-2-(4-(5-fluoropyridin-2-yl)phenyl)-2-(hydroxyimino)acetamide]
23 | < 50 | O=C(N[C@H](CN1CCCC1)[C@H](O)c1cc(F)c2c(c1)OCCO2)C(F)(F)c1ccc(-c2ccccn2)cc1 [Compound 187, 2,2-difluoro-N-((1R,2R)-1-(8-fluoro-2,3-dihydrobenzo[b][1,4]dioxin-6-yl)-1-hydroxy-3-(pyrrolidin-1-yl)propan-2-yl)-2-(4-(pyridin-2-yl)phenyl)acetamide]
